Source: PubChem BioAssay AID743072 (Broad Institute, 2013)
Active and inactive are the calls of the source. How the calls were made is not given here.

System: M. tuberculosis BioA-TetON underexpression strain, growth inhibition
Experiment: antitubercular activity, BioA-TetON-5 strain, plate reader, dry powder (AID 743072)
Details: for IC90: measured here: 90% growth inhibition

Row | Structure (SMILES) | IC50 | IC90
1 | O=C(c1ccc2c(c1)OCO2)N1CCN(c2ccccc2)CC1 | 20.9 µM | > 50 µM
2 | CCc1ccc(N2CCN(C(=O)c3ccc4c(c3)OCO4)CC2)cc1 | 6.3 µM | > 50 µM
3 | CC(=O)c1ccc(N2CCN(C(=O)c3ccc(Br)cc3)CC2)c(F)c1 | 4.9 µM | > 50 µM
4 | COc1ccc(N2CCN(C(=O)c3ccc4c(c3)OCO4)CC2)cc1 | 17.6 µM | > 50 µM
5 | CC(=O)c1ccc(N2CCN(Cc3ccc4c(c3)OCO4)CC2)cc1 | 25.2 µM | > 50 µM
6 | O=C(Nc1ccc(Cl)c(-c2nc3ccccc3[nH]2)c1)c1cccnc1 | 1.9 µM | 14.5 µM
7 | COc1ccc(C(=O)N2CCN(c3ccc(C(C)=O)cc3)CC2)cc1 | 38.5 µM | > 50 µM
8 | O=C(Nc1ccc2snnc2c1)N1CCN(c2ccccc2)CC1 | 0.9 µM | 8.3 µM
9 | Cc1cccc(/C=C(\CCC(=O)O)c2nc3ccccc3s2)c1 | 1.8 µM | 9 µM
10 | COc1ccc(NC(=O)N2CCN(c3ccccc3)CC2)cc1 | 48 µM | > 50 µM
11 | O=C(Nc1cccnc1)c1cnn2c(C(F)F)cc(C3CC3)nc12 | 3.3 µM | > 50 µM
12 | O=C(c1ccc2c(c1)OCO2)N1CCN(Cc2ccccc2)CC1 | > 50 µM (inactive) | > 50 µM
13 | CC(=O)c1ccc(N2CCN(C(=O)c3ccccc3)CC2)cc1 | > 50 µM (inactive) | > 50 µM
14 | O=C(Nc1cccnc1)N1CCN(c2ccccc2)CC1 | > 50 µM (inactive) | > 50 µM
15 | Cc1cc(C)n2nc(C(=O)Nc3cccnc3)cc2n1 | 4.2 µM | > 50 µM
16 | COc1cccc(C(=O)N2CCN(c3ccc(C(C)=O)cc3)CC2)c1 | 41.5 µM | > 50 µM
17 | O=C(Nc1ccncc1)c1cc2nc(C3CC3)cc(C(F)F)n2n1 | 50 µM | > 50 µM
18 | CC(C)(C)c1ccc(C(=O)N2CCN(c3ccc4c(c3)OCO4)CC2)cc1 | 10.7 µM | 29.5 µM
19 | COc1cc(/C=C/C(=O)Nc2cccnc2)cc(OC)c1OC | 1.3 µM | 15.3 µM
20 | Cc1ccc(-c2cc(C(F)(F)F)n3nc(C(=O)Nc4cccnc4)cc3n2)cc1 | > 50 µM (inactive) | > 50 µM

Row | Structure (SMILES) | IC50 | IC90
21 | Cc1ccccc1/C=C(\CCC(=O)O)c1nc2ccccc2s1 | 4.7 µM | 25.3 µM
22 | CC(=O)c1ccc(N2CCN(C(=O)c3ccc(Cl)cc3)CC2)cc1 | 27.9 µM | > 50 µM
23 | O=C(Nc1ccc2snnc2c1)N1CCCCC1 | 22 µM | > 50 µM
24 | CC(=O)c1ccc(N2CCN(C(=O)c3cccc(Cl)c3)CC2)cc1 | 2.2 µM | 16.5 µM
25 | O=C(c1ccc2c(c1)OCO2)N1CCN(c2ccc(F)cc2)CC1 | 10.6 µM | > 50 µM
26 | Cc1nc2cc(NC(=O)N3CCN(c4ccccc4)CC3)ccc2o1 | 36 µM | > 50 µM
27 | CC(=O)c1ccc(N2CCN(C(=O)c3cccc(F)c3)CC2)cc1 | > 50 µM (inactive) | > 50 µM
28 | Cc1nc2ccc(NC(=O)N3CCN(c4ccccc4)CC3)cc2s1 | 1.3 µM | 3.8 µM
29 | COc1cccc(NC(=O)CCC2CCN(C(=O)c3ccc(C(C)=O)s3)CC2)c1 | 4.4 µM | > 50 µM
30 | O=C(Nc1ccc2[nH]ccc2c1)N1CCN(c2ccccc2)CC1 | 11.7 µM | > 50 µM
31 | CC(=O)c1ccc(N2CCN(C(=O)c3ccc4c(c3)OCO4)CC2)cc1 | 1.3 µM | 9.3 µM
32 | O=C(O)CC/C(=C\c1ccccc1[N+](=O)[O-])c1nc2ccccc2s1 | 50 µM | > 50 µM
33 | Cc1ccc(NC(=O)N2CCN(c3ccccc3)CC2)cc1 | 10.6 µM | > 50 µM
34 | O=C(Nc1cccnc1)c1cnn2c(C(F)(F)F)cc(-c3ccccc3)nc12 | > 50 µM (inactive) | > 50 µM
35 | Cc1ccc(/C=C(\CCC(=O)O)c2nc3ccccc3s2)cc1 | 1 µM | 2.8 µM
36 | COc1cccc(NC(=O)N2CCN(c3ccccc3)CC2)c1 | 36.4 µM | > 50 µM
37 | CCc1ccc(C(=O)N2CCN(Cc3ccc4c(c3)OCO4)CC2)cc1 | 5.2 µM | > 50 µM
38 | O=C(Nc1cccc(Cl)c1)N1CCN(c2ccccc2)CC1 | 4.9 µM | > 50 µM
39 | COC(=O)c1c(C(=O)OC)c(-c2cccc(F)c2)n2c1CS(=O)C2 (stereo not given) | 1.7 µM | 34.9 µM
40 | CC(=O)c1ccc(N2CCN(C(=O)c3ccc4c(c3)OCCO4)CC2)cc1 | > 50 µM (inactive) | > 50 µM

Row | Structure (SMILES) | IC50 | IC90
41 | CC(=O)c1ccc(N2CCN(C(=O)c3cccnc3)CC2)cc1 | > 50 µM (inactive) | > 50 µM
42 | COc1ccc(-c2cc(C(F)(F)F)n3nc(C(=O)Nc4cccnc4)cc3n2)cc1 | 0.3 µM | 0.9 µM
43 | CC(=O)c1ccc(N2CCN(C(=O)c3ccc(F)cc3)CC2)cc1 | 44.7 µM | > 50 µM
44 | O=C(Nc1cccc(F)c1)N1CCN(c2ccccc2)CC1 | 4.6 µM | 32.9 µM
45 | CCOC(=O)N1CCN(C(=O)Nc2ccc3snnc3c2)CC1 | 3.8 µM | 29.6 µM
46 | O=C(COc1ccc2ccc(=O)oc2c1)N1CCN(c2ccc(F)cc2)CC1 | 10.2 µM | 42.7 µM
47 | CCN(CC)c1ccc2cc(C(=O)c3cccs3)c(=O)oc2c1 | 1.1 µM | 5.6 µM
48 | O=C(Nc1cccnc1)c1cc2nc(-c3cccs3)cc(C(F)(F)F)n2n1 | > 50 µM (inactive) | > 50 µM
49 | O=C(Nc1ccccc1)N1CCN(c2ccccc2)CC1 | 3.2 µM | 48.2 µM
50 | Cc1ccc(/C=C(\CC(=O)O)c2nc3ccccc3s2)cc1[N+](=O)[O-] | 2.9 µM | 17.2 µM
51 | Cc1cc(C)n2nc(C(=O)Nc3cccnc3)nc2n1 | 50 µM | > 50 µM
52 | Cc1ccc(/C=C(\CCC(=O)O)c2nc3ccccc3s2)cc1[N+](=O)[O-] | 0.3 µM | 0.7 µM
53 | O=C(Nc1ccc2snnc2c1)N1CCOCC1 | > 50 µM (inactive) | > 50 µM
54 | O=C(Nc1ccc(F)cc1)N1CCN(c2ccccc2)CC1 | 5.1 µM | > 50 µM
55 | CC(=O)c1ccc(N2CCN(C(=O)c3ccc4ncsc4c3)CC2)cc1 | 12.9 µM | > 50 µM
56 | O=C(O)CC/C(=C\c1ccc([N+](=O)[O-])cc1)c1nc2ccccc2s1 | 1.3 µM | 7.9 µM
57 | O=C(Nc1ccc(Cl)cc1)c1cc2nc(C3CC3)cc(C(F)(F)F)n2n1 | 50 µM | > 50 µM
58 | CC(=O)c1ccc(N2CCN(C(=O)c3ccc(C)cc3)CC2)cc1 | 31.4 µM | > 50 µM
59 | Cc1ccc(/C=C(\CCCC(=O)O)c2nc3ccccc3s2)cc1[N+](=O)[O-] | 6.1 µM | 46.2 µM
60 | O=C(c1ccc2c(c1)OCO2)N1CCN(c2ccc(Cl)cc2)CC1 | 11.3 µM | 44.5 µM
